# Reference: patent US20260199294A1, “PEPTIDE DRUG CONJUGATES” (Oncopeptides Innovation AB, priority 2022, published 2026)
# Key:
# MM.1S cells = assay: Cellular retention/efflux: intracellular and extracellular concentrations by LC-MS/MS; assay type: in vitro ADME, human; settings: MM.1S cells
# Method: Methods: MM.1S cells at 2×10^6 cells/mL were seeded at 250 μL per well in a 96-well plate. Cells were incubated in the presence of a test compound for 5, 15, and 60 min before pelleting cells by centrifugation at +4° C. for 5 min. Cell media was immediately harvested to a second plate and stored at −80° C. until further analysis. Pelleted cells were washed once with ice cold PBS before storage at −80° C. until further analysis.
# Cells were lysed and protein in the media were precipitated using acetonitrile dimethylformamide, 9:1 containing internal standard. Samples were centrifuged and the supernatant was analyzed with LC-MS/MS (ACQUITY UPLC-Xevo TQ-S micro) to determine compound concentration.
# Example compound 1, bendamustine and melphalan were used as test compounds.
# Method: Method described in Biological example 3.
# Example compounds 1, 2, 3, 4, 6, 7 and 10 were investigated. Intracellular metabolites are formed from all compounds tested. The compound used for cell treatment was metabolised to the ester-hydrolysed compound (here called Metabolite A) and to the amide-hydrolysed compound (called Metabolite B). The example compound structures and the structures of the two metabolites for the respective compounds were as shown in Table 4. The Metabolites B formed under the conditions tested were compounds with structure as Examples 17 and 18: […]
# [1] = test system: nuclear DNA (HPRT) prepared from MM.1S cells; assay: Direct DNA damage, PCR amplification with HPRT primers; assay type: biochemical, human; settings: 0.25 μM compound, 30 minutes at 37° C.
# Method: Method: DNA was prepared from MM.1S cells by QIAGEN genomic tip 20/G according to protocol described in Furda et al., Methods Mol Biol, 2012. 1 μg of DNA was treated with 0.25 μM compound for 30 minutes at 37° C. DMSO was used as control treatment. 20 ng of the treated DNA was PCR amplified using Phusion Hot Start II High Fidelity PCR Master Mix (Thermo Scientific) and primers directed to either HPRT or primers directed to mitochondrial DNA (mtDNA) was used, generating 10.4 or 8.9 kb fragments, respectively. The PCR reactions were separated on a 1% agarose gel and visualized by ChemiDoc™ MP Imaging System (BioRad). Example compounds 1, 2 and 38 were investigated, as were compounds 18 and 20, which are metabolites of compound 1. They were compared with bendamustine, melphalan and DMSO control. The results for compounds 1, 2, 18 and 20 with the HPRT primers are shown in FIG. 4(A); the results with the mtDNA primers are shown in FIG. 4(B).
compound,measurement,setting,value
"CCOC(=O)[C@H](CC(C)C)NC(=O)[C@@H](N)CCc1nc2cc(N(CCCl)CCCl)ccc2n1C [Example compound 1, Ethyl (2S)-2-[[(2S)-2-amino-4-[5-[bis(2-chloroethyl)amino]-1-methyl-benzimidazol-2-yl]butanoyl]amino]-4-methyl-pentanoate]",intracellular hydrolysis / metabolite formation,MM.1S cells,hydrolysis of Example compound 1 took place inside the cells
same,DNA damage on nuclear DNA (HPRT 10.4 kb PCR band),[1],strong DNA damaging effect
